Earlier results in US8496960B2 (Purdue Pharma L.P., priority 2001, dated 2013).

What was measured:
[1] = following oral administration

## COc1cc2nc(N3CCN(C(=O)C4CCCO4)CC3)nc(N)c2cc1OC (stereo not drawn) [terazosin]
Following oral administration
  first-pass effect: minimal
oral, with food
  effect of food on bioavailability: no significant effect
[1]
  time to antihypertensive effects: ≤ 15 min
